Relative viability data for eight cell lines are collected here from the supplement of paper PMC10307832.

Compound in the experiment “AZ505 + Navitoclax”: C1CCC(CC1)N(CCNCCC2=C3C(=C(C=C2)O)NC(=O)CO3)C(=O)CCNCCC4=CC(=C(C=C4)Cl)Cl [AZ505] + CC1(C)CCC(c2ccc(Cl)cc2)=C(CN2CCN(c3ccc(C(=O)NS(=O)(=O)c4ccc(N[C@H](CCN5CCOCC5)CSc5ccccc5)c(S(=O)(=O)C(F)(F)F)c4)cc3)CC2)C1 [Navitoclax] (partner 0.5 µM)
The experiment can be described thus: relative viability (nuclei count vs DMSO), 5 days (fraction); higher = more cells survive. In a few lines: (§1)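 Lung cancer cell lines in 1536-well plates were dosed by pin tool the day after seeding, either with one drug alone or with a fixed anchor-drug dose plus five library-drug doses (not always all listed) in √10 steps. After 5 days, cells were fixed and their nuclei stained in one step (final 0.05% Triton X-100, 1% formaldehyde, 1 ug/ml Hoechst), then counted on 4× images. Relative viability is the nuclei count in treated wells divided by that in vehicle wells. Values are medians of duplicate plates.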

Compound in the experiment “Dactolisib + Foretinib”: Cn1c(=O)n(-c2ccc(C(C)(C)C#N)cc2)c2c3cc(-c4cnc5ccccc5c4)ccc3ncc21 [Dactolisib] + COc1cc2c(Oc3ccc(NC(=O)C4(C(=O)Nc5ccc(F)cc5)CC4)cc3F)ccnc2cc1OCCCN1CCOCC1 [Foretinib] (partner 0.25 µM)
Described as above. In outline: as §1

As to NCI-H2405, the relative viability came out at 0.449 with AZ505 + Navitoclax (first compound 0.08 µM); 0.483 with AZ505 + Navitoclax (first compound 0.253 µM); 0.621 with AZ505 + Navitoclax (first compound 0.8 µM); 0.524 with AZ505 + Navitoclax (first compound 2.53 µM); 0.696 in the experiment with AZ505 + Navitoclax (first compound 8 µM); 1.02 with Dactolisib + Foretinib (first compound 0.002 µM). In addition, the relative viability with Dactolisib + Foretinib (first compound 0.006325 µM) was 1.06; in the experiment with Dactolisib + Foretinib (first compound 0.02 µM), 1.05; with Dactolisib + Foretinib (first compound 0.06325 µM), 0.606; with Dactolisib + Foretinib (first compound 0.2 µM), 0.475.
NCI-H322M: the relative viability is 1.18 with AZ505 + Navitoclax (first compound 0.08 µM); 1.1 with AZ505 + Navitoclax (first compound 0.253 µM); 1.16 with AZ505 + Navitoclax (first compound 0.8 µM); 1.1 with AZ505 + Navitoclax (first compound 2.53 µM); 1.28 in the experiment with AZ505 + Navitoclax (first compound 8 µM); 1.08 in the experiment with Dactolisib + Foretinib (first compound 0.002 µM). In addition, the relative viability with Dactolisib + Foretinib (first compound 0.006325 µM) turned out to be 0.89; in the experiment with Dactolisib + Foretinib (first compound 0.02 µM), 0.73; with Dactolisib + Foretinib (first compound 0.06325 µM) it was 0.629; in the experiment with Dactolisib + Foretinib (first compound 0.2 µM) it was 0.578.
Consider NCI-H2170, for which the relative viability with AZ505 + Navitoclax (first compound 0.08 µM) came to 0.541; with AZ505 + Navitoclax (first compound 0.253 µM), 0.665; in the experiment with AZ505 + Navitoclax (first compound 0.8 µM) it was 0.531; with AZ505 + Navitoclax (first compound 2.53 µM), 0.666; with AZ505 + Navitoclax (first compound 8 µM) it was 0.651; with Dactolisib + Foretinib (first compound 0.002 µM), 0.995. The relative viability is 1.01 with Dactolisib + Foretinib (first compound 0.006325 µM), 0.895 with Dactolisib + Foretinib (first compound 0.02 µM), 0.85 in the experiment with Dactolisib + Foretinib (first compound 0.06325 µM) and 0.174 with Dactolisib + Foretinib (first compound 0.2 µM).
On to NCI-H1395, for which the relative viability in the experiment with AZ505 + Navitoclax (first compound 0.08 µM) came to 1.09; with AZ505 + Navitoclax (first compound 0.253 µM) it was 1.06; with AZ505 + Navitoclax (first compound 0.8 µM) it was 1.06; in the experiment with AZ505 + Navitoclax (first compound 2.53 µM), 1.07; with AZ505 + Navitoclax (first compound 8 µM), 1.18; with Dactolisib + Foretinib (first compound 0.002 µM) it was 1.03. For the same cell line, the relative viability came to 0.916 with Dactolisib + Foretinib (first compound 0.006325 µM), 0.942 with Dactolisib + Foretinib (first compound 0.02 µM), 0.636 with Dactolisib + Foretinib (first compound 0.06325 µM) and 0.537 with Dactolisib + Foretinib (first compound 0.2 µM).
In the case of IA-LM, the relative viability with AZ505 + Navitoclax (first compound 0.08 µM) stood at 0.622; with AZ505 + Navitoclax (first compound 0.253 µM), 0.943; with AZ505 + Navitoclax (first compound 0.8 µM) it was 0.703; with AZ505 + Navitoclax (first compound 2.53 µM), 0.779; with AZ505 + Navitoclax (first compound 8 µM) it was 0.872; with Dactolisib + Foretinib (first compound 0.002 µM), 1.28. Also, the relative viability with Dactolisib + Foretinib (first compound 0.006325 µM) came out at 1.07; with Dactolisib + Foretinib (first compound 0.02 µM) it was 0.837; with Dactolisib + Foretinib (first compound 0.06325 µM) it was 0.497; with Dactolisib + Foretinib (first compound 0.2 µM), 0.453.
NCI-H838: the relative viability with AZ505 + Navitoclax (first compound 0.08 µM) stood at 1.12; with AZ505 + Navitoclax (first compound 0.253 µM), 1.13; with AZ505 + Navitoclax (first compound 0.8 µM), 1.13; with AZ505 + Navitoclax (first compound 2.53 µM), 1.11; with AZ505 + Navitoclax (first compound 8 µM) it was 1.11; with Dactolisib + Foretinib (first compound 0.002 µM), 1.1. Further, the relative viability with Dactolisib + Foretinib (first compound 0.006325 µM) was 0.876; in the experiment with Dactolisib + Foretinib (first compound 0.02 µM), 0.606; with Dactolisib + Foretinib (first compound 0.06325 µM), 0.288; in the experiment with Dactolisib + Foretinib (first compound 0.2 µM) it was 0.342.
In the case of CAL-12T, the relative viability with AZ505 + Navitoclax (first compound 0.08 µM) is 1.12; in the experiment with AZ505 + Navitoclax (first compound 0.253 µM), 1.15; with AZ505 + Navitoclax (first compound 0.8 µM), 1.21; in the experiment with AZ505 + Navitoclax (first compound 2.53 µM), 1.29; in the experiment with AZ505 + Navitoclax (first compound 8 µM), 1.24; in the experiment with Dactolisib + Foretinib (first compound 0.002 µM), 1.25. Besides, the relative viability in the experiment with Dactolisib + Foretinib (first compound 0.006325 µM) is 1.09; with Dactolisib + Foretinib (first compound 0.02 µM), 0.972; with Dactolisib + Foretinib (first compound 0.06325 µM), 0.898; in the experiment with Dactolisib + Foretinib (first compound 0.2 µM) it was 0.241.
Consider EBC-1, for which the relative viability with AZ505 + Navitoclax (first compound 0.08 µM) came to 0.353; in the experiment with AZ505 + Navitoclax (first compound 0.253 µM), 0.442; in the experiment with AZ505 + Navitoclax (first compound 0.8 µM) it was 0.405; in the experiment with AZ505 + Navitoclax (first compound 2.53 µM) it was 0.435; in the experiment with AZ505 + Navitoclax (first compound 8 µM), 0.431; in the experiment with Dactolisib + Foretinib (first compound 0.002 µM) it was 0.102. In addition, the relative viability turned out to be 0.0977 with Dactolisib + Foretinib (first compound 0.006325 µM), 0.103 with Dactolisib + Foretinib (first compound 0.02 µM), 0.103 in the experiment with Dactolisib + Foretinib (first compound 0.06325 µM) and 0.0903 with Dactolisib + Foretinib (first compound 0.2 µM).
